According to ChEMBL document CHEMBL1130668, “Synthesis and evaluation of paclitaxel C7 derivatives: solution phase synthesis of combinatorial libraries” (1998):
Calls of active or inactive are those of the source. The rule behind the calls is not given here.

Key:
MCF7 [1] = test: Cytotoxicity activity was measured against human breast cancer cell line MCF-7; Did not inhibit proliferation at maximum concentration tested; format: functional; conditions: read-out: ED50 (the source's name)
MCF7 [2] = test: Cytotoxicity activity was measured against resistant human breast cancer cell line MCF-7; Did not inhibit proliferation at maximum concentration tested; format: functional; conditions: read-out: ED50 (the source's name)
MCF7 [3] = test: Effect on microtubule assembly in MCF-7 cells, compared to paclitaxel (0.3 uM), given as ratio of respective ED50; format: functional, Homo sapiens
[4] = Cytotoxicity activity was measured against human breast cancer cell line MCF-7 with respect to ED50 of paclitaxel (2 nM); format: functional, MCF7
[5] = Cytotoxicity activity was measured against resistant human breast cancer cell line MCF-7 with respect to ED50 of paclitaxel (2200-3700 nM); format: functional, MCF7
MCF7 [6] = test: Cytotoxicity activity was measured against human breast cancer cell line MCF-7 with respect to ED50 of paclitaxel (2 nM); IA inactive; format: functional, cell-based
MCF7 [7] = test: Cytotoxicity activity was measured against resistant human breast cancer cell line MCF-7 with respect to ED50 of paclitaxel (2200-3700 nM); IA inactive; format: functional, cell-based
[8] = Ratio in tubulin to that of paclitaxel (0.3 uM) in microtubule assembly assay; IA inactive; format: functional

Compound	EC50 (MCF7 [1])	EC50 (MCF7 [2])	Ratio (MCF7 [3])	Ratio [4]	Ratio [5]	ED50 (MCF7 [6])	ED50 (MCF7 [7])	Ratio [8]
CC(=O)O[C@H]1C(=O)[C@]2(C)[C@@H](OC(=O)/C=C/Cl)C[C@H]3OC[C@@]3(OC(C)=O)[C@H]2[C@H](OC(=O)c2ccccc2)[C@]2(O)C[C@H](OC(=O)[C@H](O)[C@@H](NC(=O)c3ccccc3)c3ccccc3)C(C)=C1C2(C)C	> 80 nM	> 5000 nM	5.3	–	–	–	–	–
CC(=O)O[C@H]1C(=O)[C@]2(C)[C@@H](OC(=O)CCCNC(=O)OC(C)(C)C)C[C@H]3OC[C@@]3(OC(C)=O)[C@H]2[C@H](OC(=O)c2ccccc2)[C@]2(O)C[C@H](OC(=O)[C@H](O)[C@@H](NC(=O)c3ccccc3)c3ccccc3)C(C)=C1C2(C)C	> 80 nM	> 5000 nM	0.7	–	–	–	–	–
CC(=O)O[C@H]1C(=O)[C@]2(C)[C@@H](OC(=O)C3CC3)C[C@H]3OC[C@@]3(OC(C)=O)[C@H]2[C@H](OC(=O)c2ccccc2)[C@]2(O)C[C@H](OC(=O)[C@H](O)[C@@H](NC(=O)c3ccccc3)c3ccccc3)C(C)=C1C2(C)C [PACLITAXEL C7 CYCLOPROPANECARBOXYLIC ACID ESTER]	–	> 5000 nM	22	35	–	–	–	–
CC(=O)O[C@H]1C(=O)[C@]2(C)[C@@H](OC(=O)c3cccn3C)C[C@H]3OC[C@@]3(OC(C)=O)[C@H]2[C@H](OC(=O)c2ccccc2)[C@]2(O)C[C@H](OC(=O)[C@H](O)[C@@H](NC(=O)c3ccccc3)c3ccccc3)C(C)=C1C2(C)C	> 80 nM	–	8.3	–	1.2	–	–	–
CC(=O)O[C@H]1C(=O)[C@]2(C)[C@@H](OC(=O)c3ccc4ccccc4c3)C[C@H]3OC[C@@]3(OC(C)=O)[C@H]2[C@H](OC(=O)c2ccccc2)[C@]2(O)C[C@H](OC(=O)[C@H](O)[C@@H](NC(=O)c3ccccc3)c3ccccc3)C(C)=C1C2(C)C	> 80 nM	> 5000 nM	60	–	–	–	–	–
CCCCC(=O)O[C@H]1C[C@H]2OC[C@@]2(OC(C)=O)[C@H]2[C@H](OC(=O)c3ccccc3)[C@]3(O)C[C@H](OC(=O)[C@H](O)[C@@H](NC(=O)c4ccccc4)c4ccccc4)C(C)=C([C@@H](OC(C)=O)C(=O)[C@]12C)C3(C)C [PACLITAXEL C7 VALERIC ACID ESTER]	–	–	0.7	10	0.4	–	–	–
CC(=O)OCC(=O)O[C@H]1C[C@H]2OC[C@@]2(OC(C)=O)[C@H]2[C@H](OC(=O)c3ccccc3)[C@]3(O)C[C@H](OC(=O)[C@H](O)[C@@H](NC(=O)c4ccccc4)c4ccccc4)C(C)=C([C@@H](OC(C)=O)C(=O)[C@]12C)C3(C)C [PACLITAXEL C7 ACETOXYACETIC ACID ESTER]	–	–	1.7	17	1.8	–	–	–
CC(=O)O[C@H]1C(=O)[C@]2(C)[C@@H](OC(=O)C3CCCC3)C[C@H]3OC[C@@]3(OC(C)=O)[C@H]2[C@H](OC(=O)c2ccccc2)[C@]2(O)C[C@H](OC(=O)[C@H](O)[C@@H](NC(=O)c3ccccc3)c3ccccc3)C(C)=C1C2(C)C [PACLITAXEL C7 CYCLOPENTANECARBOXYLIC ACID ESTER]	–	–	1	37	1.3	–	–	–
CC(=O)O[C@H]1C(=O)[C@]2(C)[C@@H](OC(=O)c3ccsc3)C[C@H]3OC[C@@]3(OC(C)=O)[C@H]2[C@H](OC(=O)c2ccccc2)[C@]2(O)C[C@H](OC(=O)[C@H](O)[C@@H](NC(=O)c3ccccc3)c3ccccc3)C(C)=C1C2(C)C	> 80 nM	–	1.7	–	1.3	–	–	–
CC(=O)O[C@H]1C(=O)[C@]2(C)[C@@H](OC(=O)c3cnc(Cl)c(Cl)c3)C[C@H]3OC[C@@]3(OC(C)=O)[C@H]2[C@H](OC(=O)c2ccccc2)[C@]2(O)C[C@H](OC(=O)[C@H](O)[C@@H](NC(=O)c3ccccc3)c3ccccc3)C(C)=C1C2(C)C	–	–	–	–	–	inactive	inactive	inactive
CC(=O)O[C@H]1C(=O)[C@]2(C)[C@@H](OC(=O)c3ccc(Cl)cc3)C[C@H]3OC[C@@]3(OC(C)=O)[C@H]2[C@H](OC(=O)c2ccccc2)[C@]2(O)C[C@H](OC(=O)[C@H](O)[C@@H](NC(=O)c3ccccc3)c3ccccc3)C(C)=C1C2(C)C	> 80 nM	–	13	–	1.6	–	–	–
CC(=O)O[C@H]1C(=O)[C@]2(C)[C@@H](OC(=O)c3ccc(C)cc3)C[C@H]3OC[C@@]3(OC(C)=O)[C@H]2[C@H](OC(=O)c2ccccc2)[C@]2(O)C[C@H](OC(=O)[C@H](O)[C@@H](NC(=O)c3ccccc3)c3ccccc3)C(C)=C1C2(C)C	–	–	25	31	0.9	–	–	–
COc1ccc(C(=O)O[C@H]2C[C@H]3OC[C@@]3(OC(C)=O)[C@H]3[C@H](OC(=O)c4ccccc4)[C@]4(O)C[C@H](OC(=O)[C@H](O)[C@@H](NC(=O)c5ccccc5)c5ccccc5)C(C)=C([C@@H](OC(C)=O)C(=O)[C@]23C)C4(C)C)cc1	> 80 nM	–	22	–	2.2	–	–	–
CC(=O)O[C@H]1C(=O)[C@]2(C)[C@@H](OC(=O)c3ccccc3)C[C@H]3OC[C@@]3(OC(C)=O)[C@H]2[C@H](OC(=O)c2ccccc2)[C@]2(O)C[C@H](OC(=O)[C@H](O)[C@@H](NC(=O)c3ccccc3)c3ccccc3)C(C)=C1C2(C)C [PACLITAXEL C7 BENZOIC ACID ESTER]	–	–	8.3	14	1.1	–	–	–
CC(=O)O[C@H]1C(=O)[C@]2(C)[C@@H](OC(C)=O)C[C@H]3OC[C@@]3(OC(C)=O)[C@H]2[C@H](OC(=O)c2ccccc2)[C@]2(O)C[C@H](OC(=O)[C@H](O)[C@@H](NC(=O)c3ccccc3)c3ccccc3)C(C)=C1C2(C)C [PACLITAXEL C7 ACETYLCARBOXYLIC ACID ESTER]	–	–	0.7	8	0.7	–	–	–
CC(=O)O[C@H]1C(=O)[C@]2(C)[C@@H](OC(=O)C(C)(C)C)C[C@H]3OC[C@@]3(OC(C)=O)[C@H]2[C@H](OC(=O)c2ccccc2)[C@]2(O)C[C@H](OC(=O)[C@H](O)[C@@H](NC(=O)c3ccccc3)c3ccccc3)C(C)=C1C2(C)C [PACLITAXEL C7 TRIMETHYLACETIC ACID ESTER]	–	–	8.3	3	1.5	–	–	–
CCCCCCCCCCCCC(=O)O[C@H]1C[C@H]2OC[C@@]2(OC(C)=O)[C@H]2[C@H](OC(=O)c3ccccc3)[C@]3(O)C[C@H](OC(=O)[C@H](O)[C@@H](NC(=O)c4ccccc4)c4ccccc4)C(C)=C([C@@H](OC(C)=O)C(=O)[C@]12C)C3(C)C	–	–	–	–	–	inactive	inactive	inactive
CSCC(=O)O[C@H]1C[C@H]2OC[C@@]2(OC(C)=O)[C@H]2[C@H](OC(=O)c3ccccc3)[C@]3(O)C[C@H](OC(=O)[C@H](O)[C@@H](NC(=O)c4ccccc4)c4ccccc4)C(C)=C([C@@H](OC(C)=O)C(=O)[C@]12C)C3(C)C [PACLITAXEL C7 METHYLTHIOACETIC ACID ESTER]	–	–	0.7	10	0.5	–	–	–
CC(=O)O[C@H]1C(=O)[C@]2(C)[C@@H](OC(=O)c3ccco3)C[C@H]3OC[C@@]3(OC(C)=O)[C@H]2[C@H](OC(=O)c2ccccc2)[C@]2(O)C[C@H](OC(=O)[C@H](O)[C@@H](NC(=O)c3ccccc3)c3ccccc3)C(C)=C1C2(C)C	–	–	22	27	1	–	–	–
C/C=C/C(=O)O[C@H]1C[C@H]2OC[C@@]2(OC(C)=O)[C@H]2[C@H](OC(=O)c3ccccc3)[C@]3(O)C[C@H](OC(=O)[C@H](O)[C@@H](NC(=O)c4ccccc4)c4ccccc4)C(C)=C([C@@H](OC(C)=O)C(=O)[C@]12C)C3(C)C [PACLITAXEL C7 CROTONIC ACID ESTER]	> 80 nM	> 5000 nM	6.7	–	–	–	–	–
CC(=O)O[C@H]1C(=O)[C@]2(C)[C@@H](OC(=O)c3ccc(Cl)c(Cl)c3)C[C@H]3OC[C@@]3(OC(C)=O)[C@H]2[C@H](OC(=O)c2ccccc2)[C@]2(O)C[C@H](OC(=O)[C@H](O)[C@@H](NC(=O)c3ccccc3)c3ccccc3)C(C)=C1C2(C)C	> 80 nM	> 5000 nM	24	–	–	–	–	–
COCC(=O)O[C@H]1C[C@H]2OC[C@@]2(OC(C)=O)[C@H]2[C@H](OC(=O)c3ccccc3)[C@]3(O)C[C@H](OC(=O)[C@H](O)[C@@H](NC(=O)c4ccccc4)c4ccccc4)C(C)=C([C@@H](OC(C)=O)C(=O)[C@]12C)C3(C)C [PACLITAXEL C7 METHOXYACETIC ACID ESTER]	–	–	1	14	1.3	–	–	–
CC(=O)O[C@H]1C(=O)[C@]2(C)[C@@H](OC(=O)c3ccc([N+](=O)[O-])o3)C[C@H]3OC[C@@]3(OC(C)=O)[C@H]2[C@H](OC(=O)c2ccccc2)[C@]2(O)C[C@H](OC(=O)[C@H](O)[C@@H](NC(=O)c3ccccc3)c3ccccc3)C(C)=C1C2(C)C	–	> 5000 nM	8.7	12	–	–	–	–
CC(=O)O[C@H]1C(=O)[C@]2(C)[C@@H](OC(=O)CC#N)C[C@H]3OC[C@@]3(OC(C)=O)[C@H]2[C@H](OC(=O)c2ccccc2)[C@]2(O)C[C@H](OC(=O)[C@H](O)[C@@H](NC(=O)c3ccccc3)c3ccccc3)C(C)=C1C2(C)C [PACLITAXEL C7 CYANOACETIC ACID ESTER]	> 5000 nM	–	1.3	8	–	–	–	–
CC(=O)O[C@H]1C(=O)[C@]2(C)[C@@H](OC(=O)c3cccnc3C)C[C@H]3OC[C@@]3(OC(C)=O)[C@H]2[C@H](OC(=O)c2ccccc2)[C@]2(O)C[C@H](OC(=O)[C@H](O)[C@@H](NC(=O)c3ccccc3)c3ccccc3)C(C)=C1C2(C)C	> 80 nM	> 5000 nM	32	–	–	–	–	–
